{
  "source": "patent US7662574B2",
  "about": "“Use of a G protein-coupled receptor and its cognizant ligand in the identification of compounds that affect prolactin secretion” (Takeda Pharmaceutical Company Limited, priority 1999, dated 2010)",
  "key": {"rOT7T022L": {"biological_target": "T1, rOT7T022L (Rattus norvegicus, UniProt Q9EP86)", "T1 construct": "expressed in transfected cells", "T1 sequence (Q9EP86 whole entry)": "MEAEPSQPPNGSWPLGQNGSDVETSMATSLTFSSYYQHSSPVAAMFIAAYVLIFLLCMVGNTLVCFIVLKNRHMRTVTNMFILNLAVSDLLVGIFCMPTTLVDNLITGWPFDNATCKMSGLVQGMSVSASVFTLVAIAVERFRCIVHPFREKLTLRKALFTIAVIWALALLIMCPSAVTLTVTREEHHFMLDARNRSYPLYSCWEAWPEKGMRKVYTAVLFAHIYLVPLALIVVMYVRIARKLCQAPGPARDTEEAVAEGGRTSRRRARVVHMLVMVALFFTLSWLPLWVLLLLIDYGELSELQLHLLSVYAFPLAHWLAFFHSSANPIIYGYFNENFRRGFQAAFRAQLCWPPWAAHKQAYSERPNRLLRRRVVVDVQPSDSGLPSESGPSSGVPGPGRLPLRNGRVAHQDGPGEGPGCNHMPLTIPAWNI", "test": "Site sensor (Cytosensor) acidification rate in rOT7T022L receptor-expressing CHO cells", "format": "cell-based", "conditions": "peptide exposed to cells for 7 minutes and 2 seconds; FIG. 8", "experimental": "The rOT7T022L receptor-expressing CHO cells obtained in Example 7 (2) above were inoculated on capsules for site sensor in 2.7×10^5 cells/capsule. After incubation overnight, the site sensor was mounted to a workstation for the site sensor. A medium for assay (low buffered RMP11640 medium supplemented with 0.1% bovine serum albumin), which was set in the flow path of the site sensor, was supplied to the cells in a pump cycle of ON (80 seconds) and OFF (40 seconds). A rate of change in […] from 8 to 30 seconds after the pump stopped was calculated as an acidification rate. A change of the acidification rate with passage of time was monitored; when stable reading was obtained, the flow path was switched to expose each peptide to the cells for 7 minutes and 2 seconds. In the acidification rate of each well, the data for 3 cycles immediately before the peptide exposure was made 100% for standardization."}, "[1]": {"system": "pituitary hormone level in plasma", "test": "Pituitary hormone level in plasma after administration into the third ventricle", "format": "in vivo, Wistar rats", "conditions": "for plasma prolactin level: vs PBS control", "experimental": "The effect of the peptide shown by SEQ ID NO: 39 administered into the third ventricle on pituitary hormone level in plasma, was explored. Mature male Wistar rats (body weights at operation: about 290-350 g) were anesthetized with 50 mg/kg of pentobarbital, i.p., and each rat was immobilized in a rat brain stereotaxic apparatus. The incisor bar was set 3.3 mm lower from the interaural line. The skull was exposed, and using a dental drill a hole was made on the bone for implantation of a guide cannula.\nIn addition, an anchor screw was buried in one position around the hole. A stainless-steel guide cannula, AG-12 (0.4 mm inner diameter, 0.5 mm outer diameter, EICOM Co., Ltd.), was inserted in such a manner that its tip would be situated in the upper part of the third ventricle. Following the atlas of Paxinos and Watson (1986), the stereotaxic coordinates were set to AP: +7.2 mm (from the interaural line), L: 0.0 mm, and H: +2.0 mm (from the interaural line). The guide cannula was secured to the skull using instant adhesive, dental cement and an anchor screw. A stainless-steel dummy cannula, AD-12 (0.35 mm outer diameter, EICOM Co., Ltd.), was then passed through the guide cannula and locked in position with a cap nut (EICOM Co., Ltd.). After the operation the rats were housed in individual cages and kept for at least a week for postoperative recuperation before starting the experiment.\nThe operated rat was anesthetized with 50 mg/kg of pentobarbital, i.p., and immobilized in the dorsal position on a necropsy pad. A catheter (SP35, Natsume Seisakusho Co., Ltd.) was inserted into the right jugular vein. On the following day, 400 μl of blood was drawn through the jugular vein catheter. To prevent clotting, a syringe was filled beforehand with 20 μl of saline containing 200 U/ml of heparin. The cap nut and dummy cannula were removed from the rat skull and instead, a stainless steel microinjection cannula AMI13 (0.17 mm inner diameter, 0.35 mm outer diameter, EICOM Co., Ltd.) connected to a Teflon tube (50 cm long, 0.1 mm inner diameter, 0.4 mm outer diameter, EICOM Co., Ltd.) was inserted. The length of the microinjection cannula was adjusted beforehand so that its tip would be exposed from the guide cannula by 1 mm. One end of the Teflon tube was connected to a microsyringe pump and either PBS or the peptide shown by SEQ ID NO: 39 dissolved in PBS was injected, in a total volume of 10 μl, into the third ventricle at a flow rate of 5 μl/min. After a 1 minute standby time following the infusion, the microinjection cannula was disconnected and the dummy cannula was locked in position again with a cap nut. Immediately before the initiation of intraventricular administration and 10, 20, 30, 40, and 60 minutes after the initiation of administration, 400 μl aliquots of blood were collected via the cannula inserted into the jugular vein. Each blood sample collected was centrifuged (5,000 rpm, 10 min.) with a high-speed refrigerated microcentrifuge (MR-150, Tommy Seiko) and the supernatant (plasma) was recovered. The amount of prolactin in the plasma was determined by radioimmunoassay.\nThe results were shown in terms of a mean±S.E.M. To examine if there was a significant difference between the group administered with the peptide shown by SEQ ID NO: 39 dissolved in PBS and the control group administered with PBS alone, Student's t-test was used. According to the two-tailed test, the risk percentage of 5% or less was assumed to be statistically significant."}, "Human 0T7T022 receptor": {"biological_target": "T2, Human 0T7T022 receptor (Homo sapiens, UniProt Q9GZQ6)", "T2 construct": "expressed in transfected cells; host or cells: CHO cells", "T2 sequence (Q9GZQ6 whole entry)": "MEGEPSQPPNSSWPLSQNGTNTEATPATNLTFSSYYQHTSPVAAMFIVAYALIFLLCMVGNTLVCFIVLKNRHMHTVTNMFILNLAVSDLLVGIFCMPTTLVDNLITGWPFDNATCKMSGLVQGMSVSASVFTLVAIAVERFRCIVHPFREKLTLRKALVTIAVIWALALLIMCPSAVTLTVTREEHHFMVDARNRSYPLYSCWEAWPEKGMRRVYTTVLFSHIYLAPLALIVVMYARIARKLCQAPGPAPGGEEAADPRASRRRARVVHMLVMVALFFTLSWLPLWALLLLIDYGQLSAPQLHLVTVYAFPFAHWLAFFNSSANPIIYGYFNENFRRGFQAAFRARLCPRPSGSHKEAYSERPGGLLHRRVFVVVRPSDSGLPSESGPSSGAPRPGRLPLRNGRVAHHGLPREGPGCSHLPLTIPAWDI", "test": "Effect of pertussis toxin on cAMP production inhibiting activity in human 0T7T022 receptor-expressing CHO cells", "format": "cell-based", "conditions": "0.1 μM peptide, 1 μM forskolin, 100 ng/ml pertussis toxin overnight; FIG. 15", "experimental": "Human 0T7T022 receptor-expressing CHO cells obtained in Example 21 were inoculated on a 24-well plate in a concentration of 1×10^5 cells/well. After culturing overnight, the medium was exchanged by a medium added with 100 ng/ml pertussis toxin (Sigma, Inc.) or with a control medium followed by further incubation overnight. The cells were rinsed with Hanks' buffer (HBSS) supplemented with 0.05% BSA and 0.2 mM IBMX and then preincubated at 37° C. for 30 minutes in the same buffer. Next, the cells were incubated at 37° C. for 30 minutes after the buffer was exchanged by Hanks' buffer alone (HBSS) supplemented with 0.05% BSA and 0.2 mM IBMX (black column), or by HBSS further added with 1 μM forskolin only (white column), or by HBSS added with 1 μM forskolin and 0.1 μM RFRP-1-12 (peptide having the 81 (Met) to 92 (Phe) amino acid sequence in SEQ ID NO: 1) (hatched column). After completion of the incubation, cAMP in the cells of each well was extracted and quantified according to the method of cAMP EIA Kit (Amersham, Inc.)."}, "[2]": {"conditions": "10 nmols into the third ventricle"}},
  "data": [
    {"molecule": "CC(C)C[C@H](NC(=O)[C@H](CC(N)=O)NC(=O)[C@@H]1CCCN1C(=O)[C@@H](N)C(C)C)C(=O)N1CCC[C@H]1C(=O)N[C@@H](CCC(N)=O)C(=O)N[C@@H](CCCNC(=N)N)C(=O)N[C@@H](Cc1ccccc1)C(N)=O", "values": [
      {"measurement": "reaction of rOT7T022L-expressing CHO cells (acidification rate)", "setting": "rOT7T022L", "result": "strongly showed dose-dependent reaction"}
    ]},
    {"molecule": "H-MPHSFANLPLRF-NH2", "values": [
      {"measurement": "reaction of rOT7T022L-expressing CHO cells (acidification rate)", "setting": "rOT7T022L", "result": "strongly showed dose-dependent reaction"},
      {"measurement": "level of ACTH in plasma", "setting": "[1]; [2]", "result": "none showed any significant change"},
      {"measurement": "level of GH in plasma", "setting": "[1]; [2]", "result": "none showed any significant change"},
      {"measurement": "level of LH in plasma", "setting": "[1]; [2]", "result": "none showed any significant change"},
      {"measurement": "level of TSH in plasma", "setting": "[1]; [2]", "result": "none showed any significant change"},
      {"measurement": "plasma prolactin level", "setting": "[1]; 10 minutes after 10 nmols into the third ventricle", "result": "tended to increase"},
      {"measurement": "plasma prolactin level", "setting": "[1]; 20 minutes after 10 nmols into the third ventricle", "result": "significantly increased"},
      {"measurement": "plasma prolactin level", "setting": "[1]; 30 minutes after 10 nmols into the third ventricle", "result": "significantly increased"},
      {"measurement": "plasma prolactin level", "setting": "[1]; 40 minutes after 10 nmols into the third ventricle", "result": "significantly increased"},
      {"measurement": "plasma prolactin level", "setting": "[1]; 60 minutes after 10 nmols into the third ventricle", "result": "a significant difference was noted"},
      {"measurement": "cAMP production inhibiting activity in cells treated with pertussis toxin", "setting": "Human 0T7T022 receptor", "result": "lost"}
    ]}
  ]
}
